Laboratory results reported in US20090306160A1, “METHODS FOR IMPROVING DRUG DISPOSITION” (priority 2005, published 2009).

What was measured:
MRP2 [1] = biological target: T1, MRP2 (Homo sapiens, UniProt Q92887); assay: Vesicular uptake assay of [3H]LTC4 in membrane vesicles over-expressing MRP2; format: biochemical; conditions: [3H]LTC4 0.2 μM; for Vesicular uptake, AMP activation / Vesicular uptake, ATP activation: MRP2 vesicles
Experimental: (§1) In this assay ATP-dependent uptake into membrane vesicles with inside-out orientation is determined. Interaction of Compound I with ABC transporters is measured indirectly by incubating the purified membrane vesicles with known radioactive probe substrates ([^3H]LTC4 [0.2 μM] for MRP2-LTC4 stands for Leutriene C4- and [^3H]E1S [0.5 μM] -E1S stands for […]—for BCRP) in the presence and absence (negative control) of different concentrations of Compound I or a well-known positive control compound (Benzbromanone for MRP2 and Sulphasalazine for BCRP). As illustrated herein (Tables 2 and 3), Compound I inhibits [^3H]E1S as well as [^3H]LTC4 transport mediated by BCRP (IC50≅1 μM) and MRP2 (IC50≅50 μM), respectively.

BCRP [2] = biological target: T2, BCRP (Homo sapiens, UniProt Q9UNQ0); assay: Vesicular uptake assay of [3H]E1S in membrane vesicles over-expressing BCRP; format: biochemical; conditions: [3H]E1S 0.5 μM, read-out: IC50, inhibition of [3H]E1S transport mediated by BCRP
T2 sequence (Q9UNQ0 1-655): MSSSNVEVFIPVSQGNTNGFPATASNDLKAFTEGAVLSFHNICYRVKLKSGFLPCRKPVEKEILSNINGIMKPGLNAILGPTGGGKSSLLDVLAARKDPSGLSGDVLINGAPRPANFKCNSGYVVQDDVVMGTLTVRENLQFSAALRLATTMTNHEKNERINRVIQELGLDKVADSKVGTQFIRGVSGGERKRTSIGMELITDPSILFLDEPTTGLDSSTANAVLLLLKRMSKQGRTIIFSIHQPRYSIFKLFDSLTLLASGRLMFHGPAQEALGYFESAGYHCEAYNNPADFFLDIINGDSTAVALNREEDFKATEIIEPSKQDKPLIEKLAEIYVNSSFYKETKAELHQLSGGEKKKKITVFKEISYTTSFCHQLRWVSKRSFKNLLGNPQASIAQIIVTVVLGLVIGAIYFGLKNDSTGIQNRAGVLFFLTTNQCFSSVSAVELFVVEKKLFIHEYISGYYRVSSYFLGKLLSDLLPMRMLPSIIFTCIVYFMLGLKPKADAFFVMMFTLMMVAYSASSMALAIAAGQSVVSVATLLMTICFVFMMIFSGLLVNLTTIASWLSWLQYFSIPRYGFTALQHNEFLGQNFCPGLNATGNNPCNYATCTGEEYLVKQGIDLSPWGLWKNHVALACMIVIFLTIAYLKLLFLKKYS
Experimental: as §1

MDR1 = MDR1 (Homo sapiens, UniProt P08183); assay: ATPase assay, reconstituted membranes expressing high levels of MDR1; format: biochemical; conditions: for ATPase activity: MDR1 membranes
Source text: (§2) In this assay the ABC transporters remove substrates out of reconstituted cell membranes by using ATP hydrolysis as an energy source. ATP hydrolysis yields inorganic phosphate (Pi), which can be detected by a simple colorimetric reaction. The amount of Pi liberated by the transporter is proportional to the activity of the transporter. Membrane preparations containing ABC transporters show a baseline ATPase activity that varies for different transporters. Transported substrates increase this baseline ATPase activity. […] No activation of the MDR1 efflux could be observed.

MRP2 [3] = biological target: T1, MRP2; assay: ATPase assay, reconstituted membranes expressing high levels of MRP2; format: biochemical
Source text: as §2

BCRP [4] = biological target: T2, BCRP; assay: ATPase assay, reconstituted membranes expressing high levels of BCRP; format: biochemical
Source text: as §2

Caco-2 cell monolayers = assay: Caco-2 bi-directional permeability assay; format: in vitro ADME; conditions: Caco-2 cell monolayers
Experimental: (§3) Alternatively, the in vitro transporter affinity of a drug substance can be determined and approximated by measuring the compound permeability across cells known to express ABC transporters, as e.g. the Caco-2 cell line. Interaction of Compound I with ABC transporter(s) is measured by determining the concentration-dependent compound transport across Caco-2 cell monolayers from the apical (AP) to basolateral (BL) as well as the basolateral to apical side.

[5] = Caco-2 bi-directional permeability assay; format: in vitro ADME; conditions: human, Caco-2
Experimental: as §3

T1 sequence (Q92887 whole entry, species assumed): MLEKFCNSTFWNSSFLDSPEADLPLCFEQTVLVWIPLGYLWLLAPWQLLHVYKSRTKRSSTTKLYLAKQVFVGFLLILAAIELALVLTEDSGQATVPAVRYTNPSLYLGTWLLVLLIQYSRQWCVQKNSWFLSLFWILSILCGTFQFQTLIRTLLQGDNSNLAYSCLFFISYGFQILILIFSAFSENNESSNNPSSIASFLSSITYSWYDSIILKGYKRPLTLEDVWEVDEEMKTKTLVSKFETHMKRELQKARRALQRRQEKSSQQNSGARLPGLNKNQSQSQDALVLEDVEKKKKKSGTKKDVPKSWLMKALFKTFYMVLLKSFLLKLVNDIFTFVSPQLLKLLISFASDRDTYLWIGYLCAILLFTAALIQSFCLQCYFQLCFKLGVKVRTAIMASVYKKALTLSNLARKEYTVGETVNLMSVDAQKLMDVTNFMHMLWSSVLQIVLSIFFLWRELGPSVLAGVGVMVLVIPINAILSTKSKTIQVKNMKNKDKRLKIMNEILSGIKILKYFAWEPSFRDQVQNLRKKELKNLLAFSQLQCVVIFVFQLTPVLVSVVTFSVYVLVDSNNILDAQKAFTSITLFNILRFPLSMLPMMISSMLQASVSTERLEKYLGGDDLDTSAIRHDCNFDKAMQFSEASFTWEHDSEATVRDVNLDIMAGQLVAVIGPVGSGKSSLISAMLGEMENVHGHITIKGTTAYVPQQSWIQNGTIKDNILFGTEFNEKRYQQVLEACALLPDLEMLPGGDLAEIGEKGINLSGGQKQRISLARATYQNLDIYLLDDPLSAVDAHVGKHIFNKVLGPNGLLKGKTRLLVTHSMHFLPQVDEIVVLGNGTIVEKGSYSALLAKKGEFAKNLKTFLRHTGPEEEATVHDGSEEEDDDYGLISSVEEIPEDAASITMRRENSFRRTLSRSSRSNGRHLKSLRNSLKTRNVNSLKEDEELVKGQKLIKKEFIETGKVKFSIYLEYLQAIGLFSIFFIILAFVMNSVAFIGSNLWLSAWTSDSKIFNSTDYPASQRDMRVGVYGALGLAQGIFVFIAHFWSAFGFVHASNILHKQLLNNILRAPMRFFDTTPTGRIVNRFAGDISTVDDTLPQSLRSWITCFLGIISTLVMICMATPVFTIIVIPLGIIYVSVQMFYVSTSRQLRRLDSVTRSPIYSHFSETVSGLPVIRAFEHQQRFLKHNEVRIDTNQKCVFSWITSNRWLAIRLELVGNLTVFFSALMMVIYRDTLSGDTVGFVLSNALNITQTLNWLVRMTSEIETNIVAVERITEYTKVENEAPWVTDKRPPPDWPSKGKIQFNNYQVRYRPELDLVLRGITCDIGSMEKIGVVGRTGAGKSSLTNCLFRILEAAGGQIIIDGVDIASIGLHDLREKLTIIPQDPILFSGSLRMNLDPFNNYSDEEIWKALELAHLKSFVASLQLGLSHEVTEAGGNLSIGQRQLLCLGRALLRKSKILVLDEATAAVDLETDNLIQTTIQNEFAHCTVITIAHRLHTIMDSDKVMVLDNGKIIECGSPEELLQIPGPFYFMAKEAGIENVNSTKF
MDR1, sequence (P08183 whole entry, species assumed): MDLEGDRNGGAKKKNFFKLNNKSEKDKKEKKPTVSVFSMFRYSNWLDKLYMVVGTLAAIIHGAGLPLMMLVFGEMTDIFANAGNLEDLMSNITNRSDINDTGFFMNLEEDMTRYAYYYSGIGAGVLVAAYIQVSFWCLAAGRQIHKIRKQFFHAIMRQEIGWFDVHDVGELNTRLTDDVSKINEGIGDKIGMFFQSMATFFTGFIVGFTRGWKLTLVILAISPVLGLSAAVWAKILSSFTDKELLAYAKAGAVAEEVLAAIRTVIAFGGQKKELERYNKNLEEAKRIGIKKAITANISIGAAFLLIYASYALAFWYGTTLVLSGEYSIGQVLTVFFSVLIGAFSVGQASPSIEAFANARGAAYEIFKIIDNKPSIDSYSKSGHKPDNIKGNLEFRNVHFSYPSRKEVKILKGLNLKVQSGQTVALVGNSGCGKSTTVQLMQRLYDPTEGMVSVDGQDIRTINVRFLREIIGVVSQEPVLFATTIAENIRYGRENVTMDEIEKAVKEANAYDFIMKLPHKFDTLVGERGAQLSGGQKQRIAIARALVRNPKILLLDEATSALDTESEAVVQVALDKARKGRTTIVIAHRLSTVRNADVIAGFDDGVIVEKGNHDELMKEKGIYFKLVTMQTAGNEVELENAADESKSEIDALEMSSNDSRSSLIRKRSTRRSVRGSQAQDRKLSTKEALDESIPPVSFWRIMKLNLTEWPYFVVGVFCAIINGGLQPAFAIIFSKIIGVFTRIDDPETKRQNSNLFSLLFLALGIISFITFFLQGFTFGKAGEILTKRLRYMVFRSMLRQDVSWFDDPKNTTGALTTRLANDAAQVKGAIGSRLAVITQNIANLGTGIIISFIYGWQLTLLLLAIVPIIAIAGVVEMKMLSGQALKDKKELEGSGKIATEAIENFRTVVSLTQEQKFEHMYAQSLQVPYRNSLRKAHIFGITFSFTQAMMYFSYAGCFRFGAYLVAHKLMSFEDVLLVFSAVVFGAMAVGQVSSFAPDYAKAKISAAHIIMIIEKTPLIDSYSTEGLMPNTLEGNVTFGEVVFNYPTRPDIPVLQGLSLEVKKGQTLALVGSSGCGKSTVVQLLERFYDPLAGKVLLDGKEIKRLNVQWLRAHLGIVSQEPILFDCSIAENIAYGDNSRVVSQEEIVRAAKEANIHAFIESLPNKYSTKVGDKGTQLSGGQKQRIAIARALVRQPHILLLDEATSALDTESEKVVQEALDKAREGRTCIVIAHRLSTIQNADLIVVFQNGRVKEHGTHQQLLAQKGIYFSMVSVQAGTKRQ

CCCCc1oc2ccccc2c1C(=O)c1cc(Br)c(O)c(Br)c1 [Benzbromanone, reference compound]
Vesicular uptake, AMP activation (MRP2 [1]; positive control conc. 3000 μM): 11.1 pmol/mg/min | Vesicular uptake, ATP activation (MRP2 [1]; positive control conc. 3000 μM): 10.8 pmol/mg/min

O=C(O)c1ccc(-n2nc(-c3ccccc3O)nc2-c2ccccc2O)cc1 [Compound I, 4-[3,5-bis(2-hydroxyphenyl)-[1,2,4]trizol-1-yl]benzoic acid]
Vesicular uptake, AMP activation (MRP2 [1]; compound conc. 10 μM): 5.4 pmol/mg/min | Vesicular uptake, ATP activation (MRP2 [1]; compound conc. 10 μM): 25.6 pmol/mg/min | Vesicular uptake, AMP activation (MRP2 [1]; compound conc. 100 μM): 5.8 pmol/mg/min | Vesicular uptake, ATP activation (MRP2 [1]; compound conc. 100 μM): 11.5 pmol/mg/min | IC50 (MRP2 [1]; membrane vesicles, read-out: IC50, inhibition of [3H]LTC4 transport mediated by MRP2): ~50 µM | IC50 (BCRP [2]): ~1 µM | ATPase activity (MDR1; Compound I 0.04 μM): 18.7 ± 0.6 nmol Pi/min/mg protein | ATPase activity (MDR1; Compound I 0.13 μM): 18.0 ± 0.7 nmol Pi/min/mg protein | ATPase activity (MDR1; Compound I 0.40 μM): 17.4 ± 1.3 nmol Pi/min/mg protein | ATPase activity (MDR1; Compound I 1.21 μM): 17.0 ± 1.0 nmol Pi/min/mg protein | ATPase activity (MDR1; Compound I 3.63 μM): 17.3 ± 0.3 nmol Pi/min/mg protein | ATPase activity (MDR1; Compound I 10.89 μM): 17.3 ± 0.5 nmol Pi/min/mg protein | ATPase activity (MDR1; Compound I 32.67 μM): 17.3 ± 0.4 nmol Pi/min/mg protein | ATPase activity (MDR1; Compound I 98.0 μM): 16.7 ± 0.5 nmol Pi/min/mg protein | activation of the MDR1 efflux (ATPase) (MDR1; reconstituted membranes expressing high levels of MDR1): No activation | ATPase activity (MRP2 [3]; Compound I 0.04 μM): 5.1 ± 0.6 nmol Pi/min/mg protein | ATPase activity (MRP2 [3]; Compound I 0.13 μM): 5.4 ± 0.3 nmol Pi/min/mg protein | ATPase activity (MRP2 [3]; Compound I 0.40 μM): 5.4 ± 0.1 nmol Pi/min/mg protein | ATPase activity (MRP2 [3]; Compound I 1.21 μM): 5.1 ± 0.4 nmol Pi/min/mg protein | ATPase activity (MRP2 [3]; Compound I 3.63 μM): 5.0 ± 0.0 nmol Pi/min/mg protein | ATPase activity (MRP2 [3]; Compound I 10.89 μM): 5.2 ± 0.4 nmol Pi/min/mg protein | ATPase activity (MRP2 [3]; Compound I 32.67 μM): 6.3 ± 0.2 nmol Pi/min/mg protein | ATPase activity (MRP2 [3]; Compound I 98.0 μM): 8.3 ± 0.7 nmol Pi/min/mg protein | ATPase activity (BCRP [4]; Compound I 0.04 μM): 32.9 ± 1.0 nmol Pi/min/mg protein | ATPase activity (BCRP [4]; Compound I 0.13 μM): 35.5 ± 0.8 nmol Pi/min/mg protein | ATPase activity (BCRP [4]; Compound I 0.40 μM): 34.2 ± 8.0 nmol Pi/min/mg protein | ATPase activity (BCRP [4]; Compound I 1.21 μM): 49.4 ± 0.5 nmol Pi/min/mg protein | ATPase activity (BCRP [4]; Compound I 3.63 μM): 61.1 ± 0.3 nmol Pi/min/mg protein | ATPase activity (BCRP [4]; Compound I 10.89 μM): 65.9 ± 0.1 nmol Pi/min/mg protein | ATPase activity (BCRP [4]; Compound I 32.67 μM): 65.7 ± 0.5 nmol Pi/min/mg protein | ATPase activity (BCRP [4]; Compound I 98.0 μM): 60.3 ± 1.6 nmol Pi/min/mg protein | concentration at which bi-directional permeability values converge (complete efflux transporter saturation) (Caco-2 cell monolayers): about 50 μM | efflux substrate identification (Caco-2 cell monolayers; AP-BL vs BL-AP transport): substrate for one or several prominent efflux system(s) | Km (Caco-2 cell monolayers; bi-directional transport, read-out: apparent Km of efflux transport): ~5 µM | Papp A→B at 1 μM ([5]; apical to basolateral, conc. 1 μM, read-out: Caco-2 permeability Papp(AP-BL) (converted)): 1 ×10⁻⁶ cm/s | Papp A→B at 5 μM ([5]; apical to basolateral, conc. 5 μM, read-out: Caco-2 permeability Papp(AP-BL) (converted)): 7.67 ×10⁻⁶ cm/s | Papp A→B at 10 μM ([5]; apical to basolateral, conc. 10 μM, read-out: Caco-2 permeability Papp(AP-BL) (converted)): 11.6 ×10⁻⁶ cm/s | Papp A→B at 50 μM ([5]; apical to basolateral, conc. 50 μM, read-out: Caco-2 permeability Papp(AP-BL) (converted)): 14.6 ×10⁻⁶ cm/s | Papp B→A at 1 μM ([5]; basolateral to apical, conc. 1 μM, read-out: Caco-2 permeability Papp(BL-AP) (converted)): 15.5 ×10⁻⁶ cm/s | Papp B→A at 5 μM ([5]; basolateral to apical, conc. 5 μM, read-out: Caco-2 permeability Papp(BL-AP) (converted)): 23.8 ×10⁻⁶ cm/s | Papp B→A at 10 μM ([5]; basolateral to apical, conc. 10 μM, read-out: Caco-2 permeability Papp(BL-AP) (converted)): 22.2 ×10⁻⁶ cm/s | Papp B→A at 50 μM ([5]; basolateral to apical, conc. 50 μM, read-out: Caco-2 permeability Papp(BL-AP) (converted)): 21.5 ×10⁻⁶ cm/s
